# In patent publication US20250333398A1, “MONOARYL AND HETARYL SUBSTITUTED INDAZOLES AND BENZIMIDAZOLES AS STING ANTAGONISTS AND THE USE THEREOF AS MEDICAMENT” (Boehringer Ingelheim International GmbH, priority 2024, published 2025):
# Key:
# [1] = test system: T1, wild-type (GRR) human STING cGAMP binding domain (residues 155-341); test: Differential Scanning Fluorimetry (DSF), stability of STING protein against thermal denaturation; settings: 100 uM compound, 3 uM target protein
# T1 construct: His-TEV-hSTING (WT); TEV protease cleavage site (N); made in house; host or cells: E. coli BL21 DE3
# Experimental: Dye fluorescence is quenched in aqueous environment and increases upon association of the dye with the hydrophobic parts of the unfolding protein. […] The inflection point of the curve represents the “melting” temperature of the protein (Tm) which is calculated numerically using the Boltzmann equation.
# Method: The thermal stability of the STING protein was measured using a specific expression construct of the cGAMP binding domain of wild-type (GRR) human STING comprising residues 155-341 and a N-terminal 8x His-tag in assay buffer containing 20 mM Tris, 150 mM NaCl at pH7.5.
# The assay uses Hard-Shell®PCR Plates 384-Well CLR/WHT (Catalog #HSP3805, BIO-RAD), Microseal®‘B’ Adhesive Seals for PCR Plates (Catalog #MSB-1001, BIO-RAD) and was run on a CFX384 Real-Time System (Bio-Rad).
# A DMSO stock solution of SYPRO orange (SIGMA S5692-500UL) was prepared.
# Compound stock solutions (10 mM in DMSO) were diluted 1:2 in DMSO to an intermediate compound concentration of 5 mM and then further diluted 1:40 in assay buffer resulting in a compound concentration of 125 μM and 2.5% DMSO.
# Fluorescent dye stock solution (5000×SYPRO Orange) was then mixed with target protein and buffer to a concentration of 15 uM Protein and 25×SYPRO Orange. 2 ul of this protein-dye-mixture was added to 8 ul compound solution. Final volume was 10 uL. 3-6 well positions were used as negative control (protein with 2% DMSO). The plates were prepared for duplicate measurement and centrifuged for 2 min at 1000 g. In the measurement, 160 cycles of 0.5° C. were used (temperature ramp 15 s/cycle, 15° C. to 95° C.).
# Final Assay concentrations for compound characterization were as follows:
# 100 uM compound, 3 uM target protein, 5×SYPRO Orange, 2% DMSO in 10 ul. All dispensing steps were performed using a HamiltonStar pipetting robot (Hamilton).
# Dissociation curves were processed in Bio-Rad CFX Manager. Peak type was set to “negative”.
# Compound codes for screen were assigned in the plate layout.
# Two replicates of TM measurements were averaged, and the standard deviation was calculated. In cases of SD>1.5° C. the measurement was repeated.
# The melting point (Tm) obtained for STING protein alone was subtracted from T obtained for protein incubated with ligand to generate ΔTm values.
# Protein production and purification: The protein used for the biophysical experiments was a recombinant human STING protein comprising its cytosolic ectodomain. A codon optimized DNA sequence (for expression in Escherichia coli) encoding amino acid residues 155 to 341 (Swiss Prot Q86WV6) of human STING (WT) was synthesized by GeneArt (Regensburg, Germany) and inserted into a pET17b E. coli expression vector. The protein construct encodes an N-terminal 8× His-tag followed by tobacco etch virus protease (TEV) cleavage site and the above STING gene sequence. The resulting protein sequence for the used STING variant is listed below:
# For expression of recombinant human STING above construct was transformed into E. coli BL21 DE3 strain and grown in shake flasks in LB-medium at 37° C. Expression was induced by addition of isopropyl β-D-1-thiogalactopyranoside to a final concentration of 1 mM and cultures shaken overnight. Cell pellets were centrifuged and stored at −70° C. until further use. Protein was purified by cell thawing in lysis buffer (20 mM TRIS-HCl, pH 8, 300 mM NaCl, 2 mM mercaptoethanol, 20 mM imidazole, Complete Protease Inhibitor (Roche) and DNase (Roche)), followed by metal affinity purification using Ni-NTA resins and elution buffer consisting of 20 mM TRIS-HCl, pH 8, 300 mM NaCl, 2 mM mercaptoethanol, 300 mM imidazole and size exclusion chromatography in running buffer (20 mM TRIS-HCl, pH 8, 100 mM NaCl, 2 mM DTT). The peak fraction was collected and concentrated to 2.5 mg/mL.
# [2] = target: T2, human STING WT (R232); test: Human STING HTRF binding assay (competitive, Cisbio 64BDSTGPEG); settings: 6His tagged human STING WT R232, competition with STING ligand-d2
# T2 construct: purchased Cisbio 64BDSTGPEG
# Experimental: Binders to human STING WT (R232) were identified using a competitive HTRF assay format (Cisbio 64BDSTGPEG), which uses d2-labeled STING ligand, a 6His tagged human STING protein, and an anti 6His Cryptate-labeled antibody. Compounds compete with the STING ligand-d2 and thereby prevents FRET from occurring, which can be measured by an EnVision™ reader (PerkinElmer).
# Assay method: Compounds were delivered as 10 mM DMSO solution, serially diluted by an Agilent Bravo Workstation and transferred to the 384 well assay plate (Perkin Elmer #6005359) using a Cybiwell dispenser. Typically, 8 concentrations were used with the highest concentration at 10 μM or 1 μM in the final assay volume followed by ^˜1:5 dilution steps. DMSO concentration was set to 1% in the final assay volume. The 384 well assay plate contained 20 test compounds and DMSO in column 23 and 24. A cGAMP standard dilution row was prepared according to the manufacturer and transferred to each assay plate. After transfer of compound solution or dilution buffer for negative (high) and positive (low) controls, 5 μl of the human STING protein (cyclic binding domain (residues 138-379) of the WT R232 human version, fused to a 6 His tag at the Nter part; 1:50 dilution in detection buffer) were dispensed to all wells except of the positive control, which received detection buffer only. Plates were the centrifuged for 20 sec at 1000 rpm. After that, 10 μl of Anti-6His-Cryptate antibody/Sting ligand-d2 mix was added to all wells using a Multidrop combi dispenser, followed by another 20 sec/1000 rpm centrifugation step. After an incubation of the plates for 180 min at room temperature, […] at […] (HTRF ratio) was measured using an Envison Reader (PerkinElmer)
# Data evaluation and calculation: For data evaluation and calculation, HTRF ratios were calibrated using the cGAMP standard curve. After that, the measurement of the low control was set as 0% control and the measurement of the high control was set as 100% control. The IC50 values were calculated using the standard 4 parameter logistic regression formula. Calculation: [y=(a−d)/(1+(x/c)^b)+d], a=low value, d=high value; x=conc M; c=IC50 M; b=slope;
Structure (SMILES),DSF ΔTm (K) [1] [K],IC50 [2] [nM]
"CCP(=O)(CC)c1ccc(-c2nc(-c3cccc4nn(-c5cc(C(F)(F)F)n(C)n5)cc34)c(C3CC3)n2C)c(OC(F)(F)F)c1 [Example 17, 4-{5-cyclopropyl-2-[4-(diethylphosphoryl)-2-(trifluoromethoxy)phenyl]-1-methyl-1H-imidazol-4-yl}-2-[1-methyl-5-(trifluoromethyl)-1H-pyrazol-3-yl]-2H-indazole]",29,48.1
"CC[P@](C)(=O)c1ccc(-c2nc(-c3cccc4[nH]c(-c5cc(C(F)(F)F)n(C)n5)nc34)c(C3CC3)n2C)c(OC(F)(F)F)c1 [Example 18, 4-(5-cyclopropyl-2-{4-[(S)-ethyl(methyl)phosphoryl]-2-(trifluoromethoxy)phenyl}-1-methyl-1H-imidazol-4-yl)-2-[1-methyl-5-(trifluoromethyl)-1H-pyrazol-3-yl]-1H-1,3-benzodiazole]",34,26.5
"CC[P@](C)(=O)c1ccc(-c2nc(-c3cccc4nn(-c5cc(C6CC6)n(C)n5)cc34)c(C3CC3)n2C)c(OC(F)(F)F)c1 [Example 19, 2-(5-cyclopropyl-1-methyl-1H-pyrazol-3-yl)-4-(5-cyclopropyl-2-{4-[(S)-ethyl(methyl)phosphoryl]-2-(trifluoromethoxy)phenyl}-1-methyl-1H-imidazol-4-yl)-2H-indazole]",28,18
"Cn1nc(-n2cc3c(-c4nc(-c5ccc(P(C)(C)=O)cc5OC(F)(F)F)n(C)c4C4CC4)cccc3n2)cc1C(F)(F)F [Example 20, 4-{5-cyclopropyl-2-[4-(dimethylphosphoryl)-2-(trifluoromethoxy)phenyl]-1-methyl-1H-imidazol-4-yl}-2-[1-methyl-5-(trifluoromethyl)-1H-pyrazol-3-yl]-2H-indazole]",30,49.1
